{
  "source": "patent US10976308B2",
  "about": "“Plant-derived nanofibrillar cellulose hydrogel for cell culture and chemical testing” (UPM-KYMMENE CORPORATION, priority 2014, dated 2021)",
  "origin": "cited, not measured here",
  "key": {"[1]": {"conditions": "by Khetani et al. 2013"}, "3D liver models": {"test_system": "3D liver models", "conditions": "by Khetani et al. 2013"}},
  "data": [
    {"smiles": "O=C(O)Cc1ccccc1Nc1c(Cl)cccc1Cl", "note": "[diclofenac]", "values": [
      {"measurement": "Cmax", "setting": "[1]", "result": 8, "unit": "µM"}
    ]},
    {"smiles": "CN(C)CCCN1c2ccccc2CCc2ccccc21", "note": "[imipramine]", "values": [
      {"measurement": "Toxicity in 3D liver models", "setting": "3D liver models", "result": "toxicity is not detected in all 3D models tested"}
    ]},
    {"smiles": "CC(C)NCC(O)COc1cccc2ccccc12", "note": "(stereo not shown) [propranolol]", "values": [
      {"measurement": "Toxicity in 3D liver models", "setting": "3D liver models", "result": "not detected in the 3D liver models"},
      {"measurement": "Cmax", "setting": "[1]", "result": 0.2, "unit": "µM"}
    ]}
  ]
}
